Laboratory results taken from patent publication EP0576227A2, “2'-Deoxy-2',2'-difluoro(2,6,8-substituted) purine nucleosides having anti-viral and anti-cancer activity and intermediates” (ELI LILLY AND COMPANY, priority 1992, dated 1993).

Test system: HC1 human colon carcinoma
Assay: HC1 human colon carcinoma xenograft in mice, tumor weight inhibition
Format: in vivo, Nu/Nu CD-1 mice
Details: 14 day delay
Text: The HC1 human colon carcinoma xenograft was obtained in 1987 from Drs. Peter and Janet Houghton, St. Jude Children's Hospital, Memphis, TN. The tumor is a moderately well-differentiated adenocarcinoma of the ascending colon [British Journal of Cancer, 37, p 213-223 (1987)]. The first passage tumor was stored in liquid nitrogen using standard techniques. The tumors were maintained in serial passage Nu/Nu CD-1 mice (Charles River Laboratories, Portage, MI.).
The study testing the efficacy of these compounds against HC1 human colon carcinoma was initiated by removing a tumor from passage animals and mincing it into 1 to 3 mm square fragments using sterile techniques. Tumor pieces were checked for sterility using both an Antibiotic Medium 1 and Brain Heart Infusion (Difco; Detroit, MI). Tumor pieces were implanted subcutaneously in the auxilary region of recipient mice by trocar. Drug therapy on the appropriate schedule was initiated 14 days after tumor implantation. Drugs were dissolved in Emulphor for all experiments. All animals were weighed at the beginning and end of drug treatment. Food and water were provided ad libitum. On day 14 after the initiation of therapy, two dimensional measurements (width and length) of all tumors were taken using electronic calipers interfaced to a computer. Tumor weights were calculated from these measurements using the following formula: Tumor Weight (mg) = Tumor Length (mm) X Tumor Width (mm)²/2
For all data, the tumor weight was rounded to the nearest tenth of a gram for analysis. No group is included in the analysis for therapeutic activity in which deaths attributable to drug toxicity exceeded 20 percent of the treated group. Compounds are considered active if more than 60 percent inhibition of tumor growth, as determined by tumor weight, is achieved at maximally tolerated doses.
In Table 2 which follows, Column 1 gives the example number of the compound tested; Column 2, the dose level; Column 3, the route administered; Column 4, the dosage schedule; Column 5, the percent inhibition of the tumor; and Column 6; the toxic deaths observed prior to completion of the study.

[1] = 05 mg/kg, Intra-Peritoneal 0.5 ml, 1,3,5,7 9
[2] = 10 mg/kg, Intra-Peritoneal 0.5 ml, 1,3,5,7 9
[3] = 20 mg/kg, Intra-Peritoneal 0.5 ml, 1,3,5,7 9
[4] = 40 mg/kg, Intra-Peritoneal 0.5 ml, 1,3,5,7 9
[5] = 80 mg/kg, Intra-Peritoneal 0.5 ml, 1,3,5,7,9

CNc1nc(N)nc2c1ncn2[C@@H]1O[C@H](CO)[C@@H](O)C1(F)F [Example 5, 2-deoxy-2,2-difluoro-D-ribofuranosyl-1-β-(2-amino-6-methylaminopurine)]
Percent Inhibition of Tumor [1]: 92% | Toxic Deaths [1]: 0/8 | Percent Inhibition of Tumor [2]: 92% | Toxic Deaths [2]: 0/8 | Percent Inhibition of Tumor [3]: 93% | Toxic Deaths [3]: 0/8 | Percent Inhibition of Tumor [4]: 94% | Toxic Deaths [4]: 1/8 | Percent Inhibition of Tumor [5]: 95% | Toxic Deaths [5]: 0/8
